Experimental data: PMC11243327, “Design, Synthesis, Antitumor, and Antiplasmodial Evaluation of New 7-Chloroquinoline–Benzimidazole Hybrids” (Molecules, 2024)
Counter-ions that a name gives are not always drawn. Like-named read-outs stand apart in the source and are kept apart here.

How the values were obtained:
[1] = tested on: MRC-5 (human fetal lung fibroblasts); assay: Antiproliferative MTT assay, MRC-5; assay type: cell-based; conditions: 72 h, mean ± SD of three experiments
Experimental: (§1) The effect of the new synthesized compounds was tested on five human tumor cell lines, HeLa (human cervical adenocarcinoma; from ATCC), CaCo-2 (human colorectal adenocarcinoma), HL-60 (acute promyelocytic leukemia), HuT78 (T-cell lymphoma), and THP-1 (acute monocytic leukemia), as well as one non-tumor cell line, MRC-5 (human fetal lung fibroblasts). The MRC-5 cells were used between 24 and 26 passages. The cells were cultured in two different types of media: DMEM (Gibco Thermo Fisher Scinetific Inc., Runcorn, UK) and RPMI 1640 (Gibco, Thermo Fisher Scinetific Inc., UK). Both media were supplemented with 2 mM glutamine, fetal bovine serum (10%; heat inactivated), and antibiotics (100 U penicillin and 0.1 mg streptomycin). RPMI 1640 was additionally supplemented with 10 mM HEPES and 1 mM sodium pyruvate. Cells growing in a monolayer were cultured in DMEM, while cells growing in suspension were cultured in RPMI 1640. Cells were grown in humidified atmosphere under the conditions of 37 °C/5% CO2 gas in a CO2 incubator (IGO 150 CELLlife^TM, JOUAN, Thermo Fisher Scientific, Waltham, MA, USA).
(§2) Growth-inhibitory activity was assessed using a slightly modified procedure based on the National Cancer Institute’s protocol. Briefly, cells were seeded in 96-well microtiter plates and incubated for 24 h. They were then treated with 10^−7 to 10^−4 M concentrations of the tested compounds for an additional 72 h. After the treatment period, the effects of the tested compounds on the growth rate of the cells were examined using the MTT assay. Absorbance was measured at 595 nm using a microplate reader. The IC50 value, which represents a 50% inhibition of cell growth, and QC calculation were performed using the GraphPadPrism software (La Jolla, USA), v. 5.03. and Excel software, Office 365. The selectivity index was calculated according to the following formula: SI=IC50 value of normal cell line/IC50 value of cancer cell line
(§3) The effect of each concentration was analyzed by plotting the logarithm of the concentration of the evaluated compound against the corresponding percentage inhibition value using least squares.

[2] = tested on: HeLa (human cervical adenocarcinoma); assay: Antiproliferative MTT assay, HeLa; assay type: cell-based; conditions: 72 h, mean ± SD of three experiments
Experimental: as §1, §2, §3

[3] = tested on: CaCo-2 (human colorectal adenocarcinoma); assay: Antiproliferative MTT assay, CaCo-2; assay type: cell-based; conditions: mean ± SD of three experiments
Experimental: as §1, §2, §3

[4] = tested on: THP-1 (acute monocytic leukemia); assay: Antiproliferative MTT assay, THP-1; assay type: cell-based, human; conditions: mean ± SD of three experiments
Experimental: as §1, §2, §3

HuT78 (T-cell lymphoma) = assay: Antiproliferative MTT assay, Hut78; assay type: cell-based, human; conditions: mean ± SD of three experiments
Experimental: as §1, §2, §3

[5] = tested on: HL-60 (acute promyelocytic leukemia); assay: Antiproliferative MTT assay, HL-60; assay type: cell-based, human; conditions: mean ± SD of three experiments
Experimental: as §1, §2, §3

[6] = tested on: P. falciparum 3D7 (CQ-susceptible), erythrocytic stage; assay: Antiplasmodial HRP2 assay, Pf3D7; assay type: cell-based, Plasmodium falciparum; conditions: read-out: IC50 Pf3D7
Experimental: (§4) Method used to evaluate the antiplasmodial activity of quinoline–benzimidazole hybrids against two P. falciparum strains, chloroquine-sensitive (Pf3D7) and chloroquine-resistant (PfDd2), was previously described. […] Chloroquine was used as a positive control.
(§5) In brief, 96-well plates were pre-coated with the tested compounds at 1:3 dilution before ring-stage parasites were added to the complete culture medium at a hematocrit of 1.5% and a parasitemia of 0.05%. […] All compounds were analyzed in duplicate in at least two independent experiments. The IC50 was determined by nonlinear regression analysis of the logarithmic concentration-response curves using the drc package v3.0-1 of R v4.1.0 [56].

[7] = tested on: P. falciparum Dd2 (multiresistant), erythrocytic stage; assay: Antiplasmodial HRP2 assay, PfDd2; assay type: cell-based, Plasmodium falciparum; conditions: read-out: IC50 PfDd2
Experimental: as §4, §5

[8] = Homo sapiens, MRC5, non-tumor cell line
[9] = Plasmodium falciparum, 3D7, 72 h, chloroquine-sensitive strain, three days incubation, HRP2-ELISA, mean ± SD, n ≥ 2
[10] = Plasmodium falciparum, DD2, 72 h, chloroquine-resistant strain, three days incubation, HRP2-ELISA, mean ± SD, n ≥ 2

Molecule	melting point	IC50 [1, 8]	IC50 ([2]; Homo sapiens, HeLa)	IC50 ([3]; Homo sapiens, Caco-2, 72 h)	IC50 ([4]; Homo sapiens, THP-1, 72 h)	IC50 (HuT78 (T-cell lymphoma); Homo sapiens, HuT78, 72 h)	IC50 ([5]; Homo sapiens, HL-60, 72 h)	IC50 [6, 9]	IC50 [7, 10]	other results
N=C(NC1CCCC1)c1ccc2nc(-c3ccc(OCCCNc4ccnc5cc(Cl)ccc45)c(Br)c3)[nH]c2c1 (as salt: hydrochloride) [Compound 14d]	265 °C (dec.)	–	–	–	–	–	–	–	–	–
COc1ccc2nc(-c3ccc(OCCNc4ccnc5cc(Cl)ccc45)c(Br)c3)[nH]c2c1 [Compound 11c, N-{[2-bromo-4-(5(6)-methoxy-1H-benzo[d]imidazole-2-yl)phenoxy]ethyl}-7-chloroquinolin-4-amine]	208 to 210 °C	5.3 ± 2.4 µM	2.5 ± 0.4 µM	1.5 ± 0.3 µM	3.5 ± 7.3 µM	3 ± 1.1 µM	2.2 ± 0.4 µM	0.0197 ± 0.0042 µM	0.028 ± 0.0006 µM	–
N=C(NC1CCCC1)c1ccc2nc(-c3ccc(OCCCNc4ccnc5cc(Cl)ccc45)cc3)[nH]c2c1 [Compound 13d]	–	83 ± 5.4 µM	> 100 µM	> 100 µM	14.4 ± 3.1 µM	15.2 ± 3 µM	18.2 ± 6.7 µM	0.0574 ± 0.0019 µM	0.1983 ± 0.0001 µM	–
N=C(NC1CCCC1)c1ccc2nc(-c3ccc(OCCNc4ccnc5cc(Cl)ccc45)c(Br)c3)[nH]c2c1 [Compound 11d, 2-{3-bromo-4-[2-(7-chloroquinolin-4-ylamino)ethoxy]phenyl}-N-cyclopentyl-1H-benzo[d]imidazole-5(6)-carboximidamide trihydrochloride]	–	> 100 µM	> 100 µM	> 100 µM	33.9 ± 3.6 µM	17.3 ± 9.2 µM	44.3 ± 1.2 µM	0.321 ± 0.0328 µM	0.985 ± 0.521 µM	–
COc1ccc2nc(-c3ccc(OCCNc4ccnc5cc(Cl)ccc45)c(OC)c3)[nH]c2c1 [Compound 12c, 7-chloro-N-{[4-(5(6)-methoxy-benzo[d]imidazole-2-yl)-2-methoxyphenoxy]ethyl}quinolin-4-amine]	218 to 219 °C	1.1 ± 0.8 µM	2.7 ± 0.2 µM	2.1 ± 0.3 µM	3.1 ± 0.8 µM	2.4 ± 1.1 µM	0.2 µM	0.0097 ± 0.0002 µM	0.0154 ± 0.002 µM	–
COc1ccc2nc(-c3ccc(OCCCNc4ccnc5cc(Cl)ccc45)cc3)[nH]c2c1 [Compound 13c]	212 °C (dec.)	2.7 ± 0.5 µM	0.2 ± 0.2 µM	1 ± 0.5 µM	2.6 µM	1.1 ± 0.5 µM	0.3 ± 0.2 µM	0.0128 ± 0.0005 µM	0.0119 ± 0.0016 µM	–
N-{2-[4-(1H-benzo[d]imidazole-2-yl)-2-bromophenoxy]propyl}-7-chloroquinolin-4-amine [Compound 14a]	–	–	–	–	–	–	–	–	–	IC50 ([1]; non-tumor cell line): 0.6 ± 0.6 µM; IC50 [2]: 1.2 ± 0.7 µM; IC50 ([3]; 72 h): 5 ± 7.3 µM; IC50 ([4]; 72 h): 5.1 ± 1.7 µM; IC50 (HuT78 (T-cell lymphoma); 72 h): 1.7 ± 0.4 µM; IC50 ([5]; 72 h): 0.7 ± 0.5 µM; IC50 ([6]; chloroquine-sensitive strain, three days incubation, HRP2-ELISA, mean ± SD, n ≥ 2): 0.0093 ± 0.0009 µM; IC50 ([7]; chloroquine-resistant strain, three days incubation, HRP2-ELISA, mean ± SD, n ≥ 2): 0.013 ± 0.0019 µM
Clc1ccc2c(NCCOc3ccc(-c4nc5ccccc5[nH]4)cc3Br)ccnc2c1 [Compound 11a, N-{2-[4-(1H-benzo[d]imidazole-2-yl)-2-bromophenoxy]ethyl}-7-chloroquinolin-4-amine]	226 to 228 °C	2.2 ± 0.8 µM	2.6 ± 0.2 µM	2.1 ± 0.6 µM	4.9 ± 7.3 µM	2.4 ± 0.6 µM	0.3 ± 0.3 µM	0.0369 ± 0.0015 µM	0.0087 ± 0.0034 µM	–
COc1cc(-c2nc3ccc(C(=N)NC4CCCC4)cc3[nH]2)ccc1OCCNc1ccnc2cc(Cl)ccc12 (as salt: hydrochloride) [Compound 12d, 2-{3-methoxy-4-[2-(7-chloroquinolin-4-ylamino)ethoxy]phenyl}-N-cyclopentyl-1H-benzo[d]imidazole-5(6)-carboximidamide trihydrochloride]	226 °C (dec.)	–	–	–	–	–	–	–	–	–
COc1ccc2nc(-c3ccc(OCCCNc4ccnc5cc(Cl)ccc45)c(OC)c3)[nH]c2c1 [Compound 15c, 7-chloro-N-{[4-(5(6)-methoxy-benzo[d]imidazole-2-yl)-2-methoxyphenoxy]propyl}quinolin-4-amine]	220 °C (dec.)	0.7 ± 0.6 µM	1.2 ± 0.6 µM	1.5 ± 0.3 µM	2.2 ± 0.3 µM	0.7 ± 0.6 µM	0.2 µM	0.0069 ± 0.0017 µM	0.0165 ± 0.0057 µM	–
COc1cc(-c2nc3ccc(C(=N)NC4CCCC4)cc3[nH]2)ccc1OCCNc1ccnc2cc(Cl)ccc12 [Compound 12d, 2-{3-methoxy-4-[2-(7-chloroquinolin-4-ylamino)ethoxy]phenyl}-N-cyclopentyl-1H-benzo[d]imidazole-5(6)-carboximidamide trihydrochloride]	–	> 100 µM	> 100 µM	> 100 µM	100 µM	16.1 ± 4.7 µM	52.5 ± 5.1 µM	0.191 ± 0.0115 µM	0.12 ± 0.0075 µM	–
N=C(NC1CCCC1)c1ccc2nc(-c3ccc(OCCCNc4ccnc5cc(Cl)ccc45)cc3)[nH]c2c1 (as salt: hydrochloride) [Compound 13d]	> 275 °C	–	–	–	–	–	–	–	–	–
COc1ccc2nc(-c3ccc(OCCNc4ccnc5cc(Cl)ccc45)cc3)[nH]c2c1 [Compound 10c, 7-chloro-N-{2-[4-(5(6)-methoxy-1H-benzo[d]imidazole-2-yl)phenoxy]ethyl}quinolin-4-amine]	248 °C (dec.)	4.9 ± 1.7 µM	2.6 ± 0.4 µM	1.7 ± 0.1 µM	3.8 ± 0.4 µM	2.3 ± 0.8 µM	1.8 ± 0.5 µM	0.0068 ± 0.0018 µM	0.0101 ± 0.005 µM	–
COc1cc(-c2nc3ccccc3[nH]2)ccc1OCCCNc1ccnc2cc(Cl)ccc12 [Compound 15a, N-{[4-(1H-benzo[d]imidazole-2-yl)-2-methoxyphenoxy]propyl}-7-chloroquinolin-4-amine]	179 to 181 °C	0.3 ± 0.1 µM	0.4 ± 0.1 µM	0.8 ± 0.1 µM	2.2 ± 0.5 µM	1.5 ± 0.3 µM	0.4 ± 0.1 µM	0.0044 ± 0.0003 µM	0.0112 ± 0.0005 µM	–
N=C(NC1CCCC1)c1ccc2nc(-c3ccc(OCCNc4ccnc5cc(Cl)ccc45)c(Br)c3)[nH]c2c1 (as salt: hydrochloride) [Compound 11d, 2-{3-bromo-4-[2-(7-chloroquinolin-4-ylamino)ethoxy]phenyl}-N-cyclopentyl-1H-benzo[d]imidazole-5(6)-carboximidamide trihydrochloride]	234 °C (dec.)	–	–	–	–	–	–	–	–	–
N=C(NC1CCCC1)c1ccc2nc(-c3ccc(OCCCNc4ccnc5cc(Cl)ccc45)c(Br)c3)[nH]c2c1 [Compound 14d]	–	> 100 µM	> 100 µM	> 100 µM	100 µM	19.7 ± 4 µM	24.4 ± 4.4 µM	0.159 ± 0.0226 µM	0.451 ± 0.0403 µM	–
COc1cc(-c2nc3ccc(C(=N)NC4CCCC4)cc3[nH]2)ccc1OCCCNc1ccnc2cc(Cl)ccc12 (as salt: hydrochloride) [Compound 15d]	260 °C (dec.)	–	–	–	–	–	–	–	–	–
CCN(CC)CCCC(C)Nc1ccnc2cc(Cl)ccc12 (centres unmarked) [CQ, Chloroquine, reference compound]	–	–	–	–	–	–	–	–	–	IC50 ([6]; Plasmodium falciparum, 3D7, 72 h): 0.0111 ± 0.0005 µM; IC50 ([7]; Plasmodium falciparum, DD2, 72 h): 0.36 ± 0.0272 µM
